# According to ChEMBL document CHEMBL4359892, “Discovery of novel indolylarylsulfones as potent HIV-1 NNRTIs via structure-guided scaffold morphing” (Eur J Med Chem, 2019):
# pEC50, pIC50: −log10 of the molar value.
# What was measured:
# [1] = test system: Human immunodeficiency virus 1; experiment: Antiviral activity against HIV-1 3B infected in human MT4 cells assessed as reduction in virus-induced cytopathic effect incubated for 5 days by MTT assay; type: functional, organism-based; conditions: Human immunodeficiency virus 1, 3B, MT4, 120 h
# [2] = test system: Human immunodeficiency virus 1; experiment: Antiviral activity against drug resistant HIV-1 RES056 harboring reverse transcriptase K103N/Y181C double mutant infected in human MT4 cells assessed as reduction in virus-induced cytopathic effect incubated for 5 days by MTT assay; type: functional, organism-based; conditions: Human immunodeficiency virus 1, RES056, MT4, 120 h
# [3] = Cytotoxicity against human MT4 cells assessed as reduction in cell viability incubated for 5 days by MTT assay; type: cell-based
# [4] = Selectivity index, ratio of CC50 for human MT4 cells to EC50 for antiviral activity against HIV IIIB; type: toxicity; conditions: read-out: Ratio CC50/EC50
# [5] = Selectivity index, ratio of CC50 for human MT4 cells to EC50 for antiviral activity against HIV RES056; type: toxicity; conditions: read-out: Ratio CC50/EC50
# [6] = test system: Human immunodeficiency virus 1; experiment: Antiviral activity against drug resistant HIV-1 harboring reverse transcriptase E138K mutant infected in human MT4 cells assessed as reduction in virus-induced cytopathic effect incubated for 5 days by MTT assay; type: functional, organism-based; conditions: Human immunodeficiency virus 1, MT4, 120 h
# [7] = test system: Human immunodeficiency virus 1; experiment: Antiviral activity against drug resistant HIV-1 harboring reverse transcriptase L100I mutant infected in human MT4 cells assessed as reduction in virus-induced cytopathic effect incubated for 5 days by MTT assay; type: functional, organism-based; conditions: Human immunodeficiency virus 1, MT4, 120 h
# [8] = test system: Human immunodeficiency virus 1; experiment: Antiviral activity against drug resistant HIV-1 harboring reverse transcriptase K103N mutant infected in human MT4 cells assessed as reduction in virus-induced cytopathic effect incubated for 5 days by MTT assay; type: functional, organism-based; conditions: Human immunodeficiency virus 1, MT4, 120 h
# [9] = test system: Human immunodeficiency virus 1; experiment: Antiviral activity against drug resistant HIV-1 harboring reverse transcriptase Y181C mutant infected in human MT4 cells assessed as reduction in virus-induced cytopathic effect incubated for 5 days by MTT assay; type: functional, organism-based; conditions: Human immunodeficiency virus 1, MT4, 120 h
# [10] = test system: Human immunodeficiency virus 1; experiment: Antiviral activity against drug resistant HIV-1 harboring reverse transcriptase Y188L mutant infected in human MT4 cells assessed as reduction in virus-induced cytopathic effect incubated for 5 days by MTT assay; type: functional, organism-based; conditions: Human immunodeficiency virus 1, MT4, 120 h
# [11] = test system: Human immunodeficiency virus 1; experiment: Antiviral activity against drug resistant HIV-1 harboring reverse transcriptase F227L/V106A double mutant infected in human MT4 cells assessed as reduction in virus-induced cytopathic effect incubated for 5 days by MTT assay; type: functional, organism-based; conditions: Human immunodeficiency virus 1, MT4, 120 h
# [12] = molecular target: Human immunodeficiency virus type 1 reverse transcriptase (Human immunodeficiency virus 1, UniProt Q72547); experiment: Inhibition of HIV1 reverse transcriptase assessed as inhibition of biotin-dUTP incorporation into template incubated for 1 hr by ELISA
# [13] = Sub-acute toxicity in Kunming mouse assessed as increase in alveolar interstitial thickening administered for 14 days measured on day 14 by HE-staining based assay; conditions: in vivo, 336 h
# [14] = Sub-acute toxicity in Kunming mouse assessed as increase in alveolar hemorrhage administered for 14 days measured on day 14 by HE-staining based assay; conditions: in vivo, 336 h
# [15] = Sub-acute toxicity in Kunming mouse assessed as increase in proximal convoluted tubule edema administered for 14 days measured on day 14 by HE-staining based assay; conditions: in vivo, 336 h
SMILES,pEC50 [1],pEC50 [2],CC50 at 120 h [3] [nM],selectivity ratio [4],selectivity ratio [5],pEC50 [6],pEC50 [7],pEC50 [8],pEC50 [9],pEC50 [10],pEC50 [11],pIC50 [12],Activity [13],Activity [14],Activity [15]
Cc1cc(C)cc(S(=O)(=O)c2c(C(=O)NS(=O)(=O)c3ccc(F)cc3F)[nH]c3ccc(Cl)cc23)c1,5.49,< 3.92,121000,37,< 1,5.39,5.05,4.82,< 3.92,< 3.92,4.52,,,,
Cc1cc(C)cc(S(=O)(=O)c2c(C(=O)NS(C)(=O)=O)[nH]c3ccc(Cl)cc23)c1,8.02,≤ 5.03,40200,4180,≤ 4,,,,,,,,,,
Cc1cc(C)cc(S(=O)(=O)c2c(C(=O)NC3CN(Cc4n[nH]c(=O)n4C)C3)[nH]c3ccc(Cl)cc23)c1,6.96,< 4.60,25200,224,> 224,6.55,6.98,6.29,5.77,5.67,5.93,,,,
Cc1cc(C)cc(S(=O)(=O)c2c(C(=O)NS(=O)(=O)c3ccccc3)[nH]c3ccc(Cl)cc23)c1,5.76,< 3.78,167000,96,< 1,5.70,5.66,5.49,5.27,< 3.78,5.13,,,,
Cc1cc(C)cc(S(=O)(=O)c2c(C(N)=O)[nH]c3ccc(Cl)cc23)c1,8.39,< 4.89,13000,3130,< 1,6.04,7.77,7.74,7.57,,8.02,6.25,,,
O=C1Nc2ccc(Cl)cc2[C@@](C#CC2CC2)(C(F)(F)F)O1 [EFAVIRENZ],8.07,6.59,> 6350,,,,,,8.08,6.57,6.60,,,,
Cc1cc(C#N)cc(C)c1Oc1nc(Nc2ccc(C#N)cc2)nc(N)c1Br [ETRAVIRINE],8.24,7.72,> 4610,> 792,> 238,8.22,8.21,8.54,7.89,7.64,7.80,,Toxic,Toxic,Toxic
Nc1ccn([C@@H]2CS[C@H](CO)O2)c(=O)n1 [LAMIVUDINE],5.41,5.26,> 87200,,> 16,5.45,5.50,5.43,5.34,5.35,5.72,,,,
Cc1ccnc2c1NC(=O)c1cccnc1N2C1CC1 [NEVIRAPINE],6.42,< 4.82,> 15000,,,6.74,5.91,5.14,< 4.82,< 4.82,< 4.82,,,,
Cc1cn([C@H]2C[C@H](N=[N+]=[N-])[C@@H](CO)O2)c(=O)[nH]c1=O [ZIDOVUDINE],8.00,< 4.55,> 7490,> 714,> 645,7.92,8.31,7.92,8.10,8.12,8.31,,,,
